Experimental data from patent US6632829B2, “Sulfonamides and derivatives thereof that modulate the activity of endothelin” (Texas Biotechnology Corp., priority 1996, dated 2003).

Experiments:
[1] = biological target: T1, human ETA receptors (Homo sapiens, UniProt P25101); assay: Endothelin binding inhibition, Binding Test #1: competition with 125I-ET-1 for ETA receptors on TE 671 cell membranes
T1 construct: endogenous in cells; host or cells: TE 671 cells (ATCC HTB 139), membrane preparation
T1 sequence (P25101 21-427): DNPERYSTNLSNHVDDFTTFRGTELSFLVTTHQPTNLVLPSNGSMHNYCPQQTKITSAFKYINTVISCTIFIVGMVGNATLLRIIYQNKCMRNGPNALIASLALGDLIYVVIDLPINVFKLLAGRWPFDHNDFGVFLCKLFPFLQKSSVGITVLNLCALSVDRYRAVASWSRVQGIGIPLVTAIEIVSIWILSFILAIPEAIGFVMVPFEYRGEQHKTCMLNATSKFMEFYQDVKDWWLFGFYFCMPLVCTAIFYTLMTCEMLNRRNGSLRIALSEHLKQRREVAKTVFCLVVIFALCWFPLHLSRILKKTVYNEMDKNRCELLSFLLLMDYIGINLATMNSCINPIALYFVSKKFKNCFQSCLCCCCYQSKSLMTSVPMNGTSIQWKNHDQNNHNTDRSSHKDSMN

[2] = biological target: T2, human ETB receptor (Homo sapiens, UniProt P24530); assay: Endothelin binding inhibition, Binding Test #2: competition with 125I-ET-1 for ETB receptors on transfected COS7 cell membranes
T2 construct: expressed in transfected cells; host or cells: COS7 cells
T2 sequence (P24530 27-442): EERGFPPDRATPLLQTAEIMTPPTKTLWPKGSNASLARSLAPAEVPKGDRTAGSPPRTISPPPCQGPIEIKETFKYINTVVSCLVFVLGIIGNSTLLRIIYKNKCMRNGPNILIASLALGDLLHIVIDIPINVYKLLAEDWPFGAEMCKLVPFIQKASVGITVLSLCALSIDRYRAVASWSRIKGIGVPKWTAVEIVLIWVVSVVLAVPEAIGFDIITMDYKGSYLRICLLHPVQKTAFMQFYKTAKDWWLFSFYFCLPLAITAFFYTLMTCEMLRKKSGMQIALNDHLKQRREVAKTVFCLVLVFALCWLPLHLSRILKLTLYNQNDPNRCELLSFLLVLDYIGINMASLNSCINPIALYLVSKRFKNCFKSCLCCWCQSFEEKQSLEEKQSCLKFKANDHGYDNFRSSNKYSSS
Summary of the method: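 Membranes from COS7 cells transfected with human ETB receptor, prepared in HEPES pH 7.4 with aprotinin, MnCl2/DNase treatment at 37° C for 30 min. Test compounds compete with 125I-labeled ET-1 for receptor binding; membrane used at 1 μg/50 μL binding buffer.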

[3] = incubation at 24° C. (values marked †)
[4] = incubation at 4° C. (values without †)

Row | IC50 [1, 3] | IC50 [2, 3] | inhibition at 100 µM ([2]; read-out: ETB % inhibition @ 100 μM, @ 100 μM, incubation at 24° C.) | IC50 [1, 4] | IC50 [2, 4] | Compound
1 | 45 nM | 17700 nM |  |  |  | Cc1cc(C)cc(CC(=O)c2sccc2S(=O)(=O)Nc2onc(C)c2Cl)c1 [N-(4-chloro-3-methyl-5-isoxazolyl)-2-(3,5-dimethylphenylacetyl)thiophene-3-sulfonamide]
2 | 794 nM | 6490 nM |  |  |  | N-(4-chloro-3-methyl-5-isoxazolyl)-2-[2-methyl-4,5-(methylenedioxy)phenylhydroxyimino]thiophene-3-sulfonamide
3 | 27.3 nM | 12200 nM |  |  |  | Cc1noc(NS(=O)(=O)c2ccsc2C(=O)Cc2ccc3c(c2)OCO3)c1C [N-(3,4-dimethyl-5-isoxazolyl)-2-[3,4-(methylenedioxy)phenylacetyl]thiophene-3-sulfonamide]
4 | 41 nM | 1300 nM |  | 14 nM | 477 nM | Cc1noc(NS(=O)(=O)c2c(Cc3ccc(N(C)C)cc3)sc3ccccc23)c1Cl [N-(4-chloro-3-methyl-5-isoxazolyl)-2-(4-dimethylaminobenzyl)benzo[b]thiophene-3-sulfonamide]
5 | 9.1 nM | 5500 nM |  |  |  | Cc1noc(NS(=O)(=O)c2ccsc2C(=O)Cc2ccc3c(c2)OCO3)c1Br [N-(4-bromo-3-methyl-5-isoxazolyl)-2-[(3,4-methylenedioxy)phenylacetyl]thiophene-3-sulfonamide]
6 | 17000 nM | 210 nM |  |  |  | Cc1ccc(-c2ccc(S(=O)(=O)Nc3onc(C)c3Br)s2)s1 [N-(4-bromo-3-methyl-5-isoxazolyl)-5-(5-methyl-2-thienyl)thiophene-2-sulfonamide]
7 | 30 nM | 19100 nM |  |  |  | COc1cccc(CC(=O)c2sccc2S(=O)(=O)Nc2onc(C)c2Br)c1 [N-(4-bromo-3-methyl-5-isoxazolyl)-2-[(3-methoxyphenyl)acetyl]thiophene-3-sulfonamide]
8 | 1.6 nM | 11300 nM |  |  |  | Cc1cc(C)c(NC(=O)c2sccc2S(=O)(=O)Nc2onc(C)c2Cl)c(C)c1 [N-(4-chloro-3-methyl-5-isoxazolyl)-2-(2,4,6-trimethylphenylaminocarbonyl)thiophene-3-sulfonamide]
9 | 0.66 nM | 9550 nM |  |  |  | 3-[N-(Benzo-2,1,3-thiadiazol-5-yl)aminosulfonyl]thiophene-2-carboxylic acid, 3-cyanomethyl-2,4,6-trimethylanilide

The next lines start with the compound.

Row | Compound | IC50 [1, 3] | IC50 [2, 3] | inhibition at 100 µM ([2]; read-out: ETB % inhibition @ 100 μM, @ 100 μM, incubation at 24° C.) | IC50 [1, 4] | IC50 [2, 4]
10 | Cc1cc(C)c(CNC(=O)c2sccc2S(=O)(=O)Nc2onc(C)c2Cl)c(C)c1CC#N [N-4-chloro-3-methyl-5-isoxazolyl)-2-(3-cyanomethyl-2,4,6-trimethylbenzylaminocarbonyl)thiophene-3-sulfonamide] | 531 nM | 81500 nM |  |  | 
11 | Cc1noc(NS(=O)(=O)c2c(Cc3ccc(Cl)cc3)sc3ccccc23)c1C [N-(3,4-dimethyl-5-isoxazolyl)-2-(4-chlorobenzyl)benzo[b]thiophene-3-sulfonamide] | 210 nM | 4700 nM |  |  | 
12 | Cc1ccc(C)c(CC(=O)c2sccc2S(=O)(=O)Nc2onc(C)c2Cl)c1 [N-(4-chloro-3-methyl-5-isoxazolyl)-2-(2,5-dimethylphenylacetyl)thiophene-3-sulfonamide] | 7 nM | 18000 nM |  |  | 
13 | COc1ccc2c(S(=O)(=O)Nc3onc(C)c3Cl)c(Cc3ccc4c(c3)OCO4)sc2c1 [N-(4-chloro-3-methyl-5-isoxazolyl)-6-methoxy-2-[3,4-(methylenedioxy)benzyl]benzo[b]thiophene-3-sulfonamide] | ~2000 nM | 2390 nM |  |  | 
14 | Cc1cc(C)c(OC(=O)c2sccc2S(=O)(=O)Nc2onc(C)c2C)c(C)c1 [N-(3,4-dimethyl-5-isoxazolyl)-2-[(2,4,6-trimethylphenoxy)carbonyl]thiophene-3-sulfonamide] | 537 nM |  | 8% |  | 
15 | Cc1noc(NS(=O)(=O)c2ccsc2C(=O)Oc2ccc3c(c2)OCO3)c1Cl [N-(4-chloro-3-methyl-5-isoxazolyl)-2-[3,4-(methylenedioxy)phenoxycarbonyl]thiophene-3-sulfonamide] | 6.5 nM | 7400 nM |  |  | 
16 | Cc1cc(C)c(OCc2sccc2S(=O)(=O)Nc2onc(C)c2Br)c(C)c1 [N-(4-bromo-3-methyl-5-isoxazolyl)-2-[(2,4,6-trimethylphenoxy)methyl]thiophene-3-sulfonamide] | 56.2 nM | 3390 nM |  |  | 
17 | COc1cc(NC(=O)c2sccc2S(=O)(=O)Nc2onc(C)c2Cl)c(C(N)=O)cc1OC [N-(4-chloro-3-methyl-5-isoxazolyl)-2-(2-carboxamido-4,5-dimethoxyphenylaminocarbonyl)thiophene-3-sulfonamide] | 11 nM | 61000 nM |  |  | 
18 | Cc1ccc(CCc2sccc2S(=O)(=O)Nc2onc(C)c2Br)c(C)c1 [N-(4-bromo-3-methyl-5-isoxazolyl)-2-(2,4-dimethylphenethyl)thiophene-3-sulfonamide] | 55.5 nM | 3480 nM |  |  | 
19 | Cc1cc(C)c(OC(=O)c2sccc2S(=O)(=O)Nc2onc(C)c2Cl)c(C)c1 [N-(4-chloro-3-methyl-5-isoxazolyl)-2-[(2,4,6-trimethylphenoxy)carbonyl]thiophene-3-sulfonamide] | 77.6 nM | 30200 nM |  |  | 
20 | Cc1cc2c(cc1C=CCc1sccc1S(=O)(=O)Nc1onc(C)c1Br)OCO2 [N-(4-bromo-3-methyl-5-isoxazolyl)-2-[2-methyl-4,5-(methylenedioxy)cinnamyl]thiophene-3-sulfonamide] | 80.4 nM | 3280 nM |  |  | 
21 | Cc1noc(NS(=O)(=O)c2ccsc2C(=O)C(O)c2ccc3c(c2)OCO3)c1Cl (stereo not drawn) [N-(4-chloro-3-methyl-5-isoxazolyl)-2-{α-hydroxy-[3,4-(methylenedioxy)phenyl]acetyl}thiophene-3-sulfonamide] | 2500 nM | 30000 nM |  |  | 
22 | Cc1ccc(CC(=O)c2sccc2S(=O)(=O)Nc2onc(C)c2Cl)c(C)c1 [N-(4-chloro-3-methyl-5-isoxazolyl)-(2,4-dimethylphenylacetyl)thiophene-3-sulfonamide] | 0.4 nM | 4800 nM |  |  | 
23 | Cc1cc(C)c(OCc2ccsc2S(=O)(=O)Nc2onc(C)c2Br)c(C)c1 [N-(4-bromo-3-methyl-5-isoxazolyl)-3-[(2,4,6-trimethylphenoxy)methyl]thiophene-2-sulfonamide] | 45.7 nM | 4680 nM |  |  | 
24 | COc1ccc(OC(=O)c2sccc2S(=O)(=O)Nc2onc(C)c2Br)cc1 [N-(4-bromo-3-methyl-5-isoxazolyl)-2-[(4-methoxylphenoxy)carbonyl]thiophene-3-sulfonamide] | 1730 nM | 111000 nM |  |  | 
25 | COc1ccc(CC(=O)c2sccc2S(=O)(=O)Nc2onc(C)c2Cl)cc1 [N-(4-chloro-3-methyl-5-isoxazolyl)-2-[(4-methoxyphenyl)acetyl]thiophene-3-sulfonamide] | 43 nM | 10100 nM |  |  | 
26 | COc1ccc(OC(=O)c2sccc2S(=O)(=O)Nc2onc(C)c2Cl)cc1 [N-(4-chloro-3-methyl-5-isoxazolyl)-2-[(4-methoxyphenoxy)carbonyl]thiophene-3-sulfonamide] | 23 nM | 15000 nM |  |  | 
27 | COC(=O)c1cc(C)c(NC(=O)c2sccc2S(=O)(=O)Nc2onc(C)c2Cl)c(C)c1 [N-(4-chloro-3-methyl-5-isoxazolyl)-2-[(4-methoxycarbonyl-2,6-dimethyl)phenylaminocarbonyl]thiophene-3-sulfonamide] | 0.266 nM | 9780 nM |  |  | 
